Assay results reported in US20140113904A1, “TREATMENT OF CANCER WITH TOR KINASE INHIBITORS” (SIGNAL PHARMACEUTICALS, LLC, priority 2012, published 2014).

Key:
GSK3β(S9) = assay: Phospho-GSK3β(S9) in PC3 cell lysates, Luminex multiplex; type: cell-based, human; conditions: PC3, 1 hour exposure; read-out: p-GSK3β (S9) IC50
From the text: The direct substrate for TORC1 was 4E-BP 1(T46) and indirect downstream substrate was S6RP(S235/S236). The direct substrate for TORC2 was Akt(S473) and indirect downstream substrates measured were GSK3β(S9) and PRAS40(T246). Additionally, the phosphorylation status of Akt(T308), a phosphorylation site for PDK1 was monitored.
The multiplex Luminex assay format differs from conventional enzyme-linked immunosorbent assay (ELISA) in that the multiplex capture antibody is attached to a polystyrene bead whereas the ELISA capture antibody is attached to the microplate well. The use of the suspension bead-based technology enables the multiplexing capabilities of the Luminex assays. The xMAP® technology uses 5.6 micron polystyrene microspheres, which are internally dyed with red and infrared fluorophores of differing intensities. Each bead is given a unique number, or bead region, allowing differentiation of one bead from another. Beads covalently bound to different specific antibodies can be mixed in the same assay, utilizing a 96-well microplate format. At the completion of the sandwich immunoassay, beads can be read, using the Luminex 100™ or Luminex 200 detection system, in single-file by dual lasers for classification and quantification of each analyte. […]

4EBP1 (T46) = assay: p-4E-BP1 (T46) in PC-3 cell lysates, ELISA (Compound 2); type: cell-based; conditions: Homo sapiens; PC-3, 1 hour; read-out: mTORC1 4EBP1 (T46) IC50
Procedure: The direct substrate for mTORC1 was 4E-BP1([…]) and the indirect downstream substrate was S6RP (S235/[…]). The direct substrate for mTORC2 was AKT (S473) and the indirect downstream substrates measured were GSK3β(S9) and PRAS40 ([…]). Additionally, the phosphorylation status of AKT (T308), a phosphorylation site for PDK1, was monitored. Concentration-response curves were plotted and IC50 values determined. Cells were plated at the required density as described in the previous section detailing the Meso Scale assays. […] After incubation with compound, the culture medium was removed via aspiration. Then the plate was placed on ice and 35 μL of the Invitrogen Cell Extraction Buffer (containing fresh PMSF and protease inhibitor cocktail) were added to each well. The treated cells were allowed to undergo lysis for a total of 30 minutes on ice and then shaken for 2 minutes at 4° C. At this point, the plate could be either frozen at -80° C. for later analysis or analyzed immediately with the Invitrogen 4E-BP1[[…]] assay kit. Standards were prepared according to the supplied protocol and 100 μL of each standard was added to appropriate wells. Samples containing Cell Extraction buffer only or diluent buffers only also were included for background controls. […] Absorbance was measured at 450 nm on the VICTORTM X2 multilabel plate reader (Perkin Elmer).

Ki67 = Ki67 immunohistochemistry in PC3 tumors (Compound 2); type: in vivo, SCID mice; conditions: 5 mg/kg oral QD for 6 days, 2 hours after last dose

Row | IC50 (GSK3β(S9)) [nM] | IC50 (4EBP1 (T46)) [nM] | SMILES | reduction in the number of proliferating cells (Ki67) vs vehicle (Ki67) [%]
1 | 230 |  | CO[C@H]1CC[C@H](N2C(=O)CNc3ncc(-c4ccc(C(C)(C)O)nc4)nc32)CC1 [Compound 1, 7-(6-(2-hydroxypropan-2-yl)pyridin-3-yl)-1-((1r,4r)-4-methoxycyclohexyl)-3,4-dihydropyrazino-[2,3-b]pyrazin-2(1H)-one] | 
2 |  | 130 | CCN1C(=O)CNc2ncc(-c3ccc(-c4nc[nH]n4)nc3C)nc21 [Compound 2, 1-ethyl-7-(2-methyl-6-(1H-1,2,4-triazol-3-yl)pyridin-3-yl)-3,4-dihydropyrazino[2,3-b]pyrazin-2(1H)-one] | 93
